Results: US11823799B2, “Method for identifying personalized therapeutic strategies for patients affected with a cancer” (UNIVERSITE DE STRASBOURG, priority 2015, dated 2023)

Key:
[1] = test system: glioblastoma patient HB21 tumor; assay: Glioblastoma patient HB21 biopsy cells grafted orthotopically in mouse brain, tumor volume; assay type: in vivo, Immunocompromised mice; conditions: for tumor growth inhibition compared to standard of care (Temozolomide): SB-3CT 25 mg/kg p.o, Cediranib 6 mg/kg p.o, 21 days after first treatment
Procedure: Immunocompromised mice were anesthetized with isoflurane 3% (BAXTER), under 0.5 L 02, and received a subcutaneous injection of ketofen 1% 1.5 mL/Kg (MERIAL). The scalp was incised and 100 000 cells of the dissociated glioblastoma biopsy were engrafted with a 2 μL Hamilton syringe (HARVARD […]; HAM-88400) mounted on a stereotaxic set up (HARVARD […]) at the following coordinates from the bregma x: −2 mm; y: +1 mm; z: −3.5 mm at a speed of 0.66 μl/min, 5 minutes after the syringe introduction. After injection, the syringe was kept in place for 5 minutes, and then raised for 1 mm per minute. The scalp was sutured with 7.5 mm Michel stainless steel wound clips (A75, PERFECT). Animals were allowed to recover under a heat lamp several minutes before they were returned to their cage.
After 52 days of tumor development, mice were randomized in 4 groups of treatment. First group was treated with Temozolomide 40 mg/kg (n=9) i.v during 5 consecutive days, second one was treated with SB-3CT 25 mg/kg (n=9) p.o during 10 days interrupted by 2 days of wash-out after 5 days, a third group was treated with Cediranib 6 mg/kg (n=10) p.o during 10 days interrupted by 2 days of wash-out after 5 days, a last one group was treated with Erlotinib 50 mg/kg (n=9) p.o 1 time per week during 3 weeks. The administration volume was 100 μL. On the day of termination (21 days after the first treatment), all mice are sacrificed by cervical dislocation, brains are removed (38 total samples), and included in cryo-embedding media OCT© and stored at −80° C.
Brains were cut in 20 μm sections with a cryostat (LEICA CM 3050S), mounted on blade (Superfrost Super Plus), and stored at −20° C. In order to visualize the tumor, brain sections were thawed in distilled water and Stained with 2% diluted Giemsa's staining (SUBRA; RAL diagnostic 320310-1000) in distilled water at 37° C. for 2 hours. […] Tumor volume was calculated by the addition of every partial volume: [Vtotal=Σpartial volumes=Σd1× (S1+S2)/2+d2×(S2+S3)/2+ . . . +dn× (Sn+Sn+1)]. […]

[2] = test system: PC model (HID-28); assay: Prostate tumor PDX model HID-28, subcutaneous tumor growth in mice; assay type: in vivo, nude mice; conditions: Cediranib 6 mg/kg p.o; for effect on tumor growth / tumor development: Docetaxel 20 mg/kg i.p, Erlotinib 50 mg/kg p.o, vs vehicle
From the text: Small tumor fragments are subcutaneously implanted in the flank of athymic nude mice. When tumor size reached 1000 to 2000 mm^3, tumors are surgically excised and small tumor fragments (approximately 40 mm^3) are implanted in the subcutaneous tissue of the interscapular region of 82 nude mice. 36 mice with established growing tumors and tumor volume ranging 60 to 200 mm^3 are included in the study and randomized according to their individual tumor volume into 4 groups of 9 mice. Tumor signature is verified during the amplification and also after engraftment.
The first group is treated with Erlotinib 50 mg/kg (n=9) p.o 1 time per week during 3 weeks, the second is treated with Cediranib 6 mg/kg (n=9) p.o during 3 cycles of 5 days interrupted by 2 days of wash-out, the third group with a mix of the vehicle of Erlotinib and Cediranib (sodium carboxymethylcellulose 0.5%, captisol 15%, DMSO 1% and methylcellulose 0.5%), and the last group is treated with Docetaxel 20 mg/kg (n=9) i.p during 2 cycles of 1 injection every 3 weeks.
Tumor volume is evaluated biweekly by measuring tumor diameters, with a caliper. The formula TV (mm^3)=[length (mm)×width (mm)^2]/2 will be used, where the length and the width are the longest and the shortest diameters of the tumor, respectively.
On the day of termination (28 days after the first treatment), mice are sacrificed by cervical dislocation, tumor are collected from all mice (36 tumor samples totally) and serum from 5 mice per group is collected (20 serum samples totally).

[3] = test system: PC model (HID-28); conditions: cited from earlier work
[4] = test system: recurrent glioblastoma; conditions: cited from earlier work
[5] = test system: CC model (CR-IC-028M); assay: Colorectal tumor PDX model CR-IC-028M, subcutaneous tumor growth in mice; assay type: in vivo, SWISS Nude mice; conditions: Cediranib 6 mg/kg p.o
From the text: Small tumor fragments were subcutaneously implanted in the right flank of 9 CB17 SCID mice. When tumor size reached 500-700 mm^3, tumors were surgically excised and small tumor fragments were subcutaneously implanted in the right flank of 52 recipient SWISS Nude mice.
The treatment started when tumors reached a mean volume of 200-300 mm^3. 40 animals out were randomized according to their individual tumor volume into 4 groups each of 10 animals using Vivo Manager® software (Biosystemes, Couternon, France). A statistical test (analysis of variance) was performed to test for homogeneity between groups.
The administration volume for the two models was 10 mL/kg (200 μL/mouse of 20 g) adjusted to the most recent individual body weight of mice.
The tumor volume was calculated by [(a×b^2) 2], where a is the largest tumor diameter and b the perpendicular tumor diameter measured with a caliper every 3 days.
On the day of termination (31 days after the first treatment), mice were sacrificed (40 total samples) by gas anesthesia over-dosage (Isoflurane) followed by cervical dislocation or exsanguination and tumor were collected from all mice.

C#Cc1cccc(Nc2ncnc3cc(OCCOC)c(OCCOC)cc23)c1 [Erlotinib]
efficacy when compared to all other drugs ([1]; Erlotinib 50 mg/kg p.o 1 time per week, 3 weeks, not significantly different): −60% | effect on tumor growth / tumor development [2]: not efficient in blocking tumor development

CC(=O)O[C@@]12CO[C@@H]1C[C@H](O)[C@@]1(C)C(=O)[C@H](O)C3=C(C)[C@@H](OC(=O)[C@H](O)[C@@H](NC(=O)OC(C)(C)C)c4ccccc4)C[C@@](O)([C@@H](OC(=O)c4ccccc4)[C@H]21)C3(C)C [Docetaxel]
effect on tumor growth / tumor development [2]: tumor growth was inhibited | response of the model in previous results [3]: responsive

Bevacizumab
PFS and OS advantage in phase III trials ([4]; AVAglio and RTOG phase III trials (Soffietti 2014)): significant advantage for Bevacizumab treated patients in term of PFS but not of OS | patients who seem to benefit from treatment ([4]; overall): less than 50%

O=S(=O)(CC1CS1)c1ccc(Oc2ccccc2)cc1 (stereo not drawn) [SB-3CT]
tumor growth inhibition compared to standard of care (Temozolomide) [1]: identical to the one obtained with the standard of care

COc1cc2c(Oc3ccc4[nH]c(C)cc4c3F)ncnc2cc1OCCCN1CCCC1 [Cediranib]
effect on tumor growth / tumor development ([5]; Cetuximab 12.5 mg/kg i.p, Trastuzumab 1 mg/kg i.p, vs vehicle): very significant anti-tumor activity | tumor volume change ([5]; end point of the protocol, p=0.01, T-test, evolution of tumor growth P<0.0001): −50% | tumor growth inhibition compared to standard of care (Temozolomide) [1]: identical to the one obtained with the standard of care | effect on tumor growth / tumor development [2]: very significant anti-tumor activity | tumor volume change ([2]; end point of the protocol, p=0.002, T-test, evolution of tumor growth P<0.0001): −78%
